From patent US6924282B2, “Sodium salt of an HIV integrase inhibitor” (Merck & Co., Inc., priority 2001, dated 2005)

Key:
[1] = target: recombinant integrase (HIV integrase) (Human immunodeficiency virus type 1 group M subtype B, UniProt P04585); conditions: strand transfer assay of Example 193 of WO 02/30930
From the text: The strand transfer assay is described in Example 193 of WO 02/30930.

[2] = test system: acute HIV infection of T-lymphoid cells; experiment: assay for the inhibition of acute HIV infection of T-lymphoid cells; assay type: cell-based; conditions: in accordance with Vacca et al., PNAS 1994, 91: 4096-4100
From the text: Compound A is an inhibitor of HIV integrase.

[3] = oral bioavailability and pharmacokinetics in rats; assay type: in vivo; conditions: relative to amorphous and crystalline Compound A
[4] = oral absorption and pharmacokinetics in animal models; assay type: in vivo; conditions: compared to crystalline Compound A per se
From the text: The present invention is directed to a pharmaceutically acceptable alkali metal salt of an HIV integrase inhibitor.

[5] = oral bioavailability and pharmacokinetics in dogs; assay type: in vivo; conditions: relative to amorphous and crystalline Compound A

O=C(NCc1ccc(F)cc1)c1nc(N2CCCCS2(=O)=O)c2cccnc2c1O [Compound A, 5-(1,1-dioxido-1,2-thiazinan-2-yl)-N-(4-fluorobenzyl)-8-hydroxy-1,6-naphthyridine-7-carboxamide]
inhibition of integrase strand transfer [1]: potent inhibitor
inhibition of acute HIV infection of T-lymphoid cells [2]: active

O=C(NCc1ccc(F)cc1)c1nc(N2CCCCS2(=O)=O)c2cccnc2c1[O-].[Na+] [crystalline sodium salt of Compound A, Sodium salt of 5-(1,1-Dioxido-1,2-thiazinan-2-yl)-N-(4-fluorobenzyl)-8-hydroxy-1,6-naphthyridine-7-carboxamide]
oral bioavailability [3]: superior oral bioavailability
pharmacokinetics (e.g., Cmax and AUC) [3]: improved pharmacokinetics
oral absorption [4]: superior oral absorption
pharmacokinetics [4]: improved pharmacokinetics
oral bioavailability [5]: superior oral bioavailability
pharmacokinetics (e.g., Cmax and AUC) [5]: improved pharmacokinetics
